Measurements: ChEMBL document CHEMBL4354794, “Potential Anticancer Agents Characterized from Selected Tropical Plants” (J Nat Prod, 2019)
One block for each molecule: values may come before it.

Columns and labels:
[1] = tested on: HT-29; test: Antiproliferative activity against human HT-29 cells assessed as reduction in cell viability; format: functional, cell-based
[2] = tested on: HepG2; test: Antiproliferative activity against human HepG2 assessed as reduction in cell viability incubated for 48 hrs by AlamarBlue assay; format: functional, cell-based; details: HepG2, 48 h
[3] = tested on: HT-29; test: Antiproliferative activity against human HT-29 cells assessed as reduction in cell viability after 3 days by SRB assay; format: functional, cell-based; details: HT-29, 72 h
[4] = tested on: A549; test: Antiproliferative activity against human A549 cells assessed as reduction in cell viability after 48 hrs by MTT assay; format: functional, cell-based; details: A549, 48 h
[5] = tested on: BGC-823; test: Antiproliferative activity against human BGC823 cells assessed as reduction in cell viability after 48 hrs by MTT assay; format: functional, cell-based; details: BGC-823, 48 h
[6] = Antiproliferative activity against human KKU100 cells assessed as reduction in cell viability after 72 hrs by SRB assay; format: functional, cell-based; details: KKU100, 72 h
[7] = tested on: HL-60; test: Antiproliferative activity against human HL60 cells assessed as reduction in cell viability after 3 days by trypan blue dye based hemocytometer counting method; format: functional; details: HL-60, 72 h
[8] = tested on: NCI-H1650; test: Antiproliferative activity against human NCI-H1650 cells assessed as reduction in cell viability after 72 hrs by CellTiter-Glo assay; format: functional, cell-based; details: NCI-H1650, 72 h
[9] = tested on: MCF7; test: Antiproliferative activity against human MCF7 assessed as reduction in cell viability incubated for 48 hrs by AlamarBlue assay; format: functional, cell-based; details: MCF7, 48 h
[10] = molecular target: Trypsin (Homo sapiens, UniProt P07477+P07478+P35030); test: Inhibition of trypsin (unknown origin) using Z-FR-MCA as substrate by spectrofluorimetric method; format: protein assay
[11] = molecular target: Cruzipain (Trypanosoma cruzi, UniProt P25779); test: Inhibition of Trypanosoma cruzi cruzain (unknown origin) using Z-FR-MCA as substrate by spectrofluorimetric method
Sequence of Cruzipain (P25779 whole entry): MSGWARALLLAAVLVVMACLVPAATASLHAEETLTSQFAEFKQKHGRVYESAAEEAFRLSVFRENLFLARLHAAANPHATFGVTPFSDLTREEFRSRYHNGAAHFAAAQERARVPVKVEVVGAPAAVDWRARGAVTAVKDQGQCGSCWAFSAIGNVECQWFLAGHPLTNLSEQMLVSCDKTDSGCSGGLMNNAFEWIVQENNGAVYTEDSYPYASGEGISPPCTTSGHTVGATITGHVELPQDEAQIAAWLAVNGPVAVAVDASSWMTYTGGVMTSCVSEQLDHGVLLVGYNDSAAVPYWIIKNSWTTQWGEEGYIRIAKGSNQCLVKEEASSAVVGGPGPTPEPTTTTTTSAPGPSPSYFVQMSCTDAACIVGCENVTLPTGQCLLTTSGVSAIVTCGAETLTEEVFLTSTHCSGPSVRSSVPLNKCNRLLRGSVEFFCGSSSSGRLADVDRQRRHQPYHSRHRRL

[12] = molecular target: T1, Papain (Carica papaya, UniProt P00784); test: Inhibition of Papaya papain using Z-FR-MCA as substrate by spectrofluorimetric method
T1 sequence (P00784 whole entry): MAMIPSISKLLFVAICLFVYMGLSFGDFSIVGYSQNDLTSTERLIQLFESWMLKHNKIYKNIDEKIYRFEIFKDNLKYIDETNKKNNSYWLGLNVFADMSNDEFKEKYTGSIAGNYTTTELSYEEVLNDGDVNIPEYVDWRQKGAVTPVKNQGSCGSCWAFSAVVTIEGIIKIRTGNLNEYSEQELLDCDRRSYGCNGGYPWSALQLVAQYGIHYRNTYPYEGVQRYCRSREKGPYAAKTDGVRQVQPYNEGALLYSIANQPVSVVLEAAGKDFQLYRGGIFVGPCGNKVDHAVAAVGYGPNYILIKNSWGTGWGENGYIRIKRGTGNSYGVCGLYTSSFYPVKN

[13] = tested on: P388; test: Antiproliferative activity against mouse P388 cells assessed as reduction in cell viability; format: functional, cell-based

Compound: C=C(C)C(=O)O[C@H]1C[C@@]2(C)OC(=CC2=O)C(=C)[C@H](O)[C@H]2OC(=O)C(=C)[C@@H]21
IC50 [1]: 280 nM

Compound: C=C1C(=O)O[C@@H]2C3O[C@]3(C)CC/C=C(\C)CC[C@@H]12 (stereo partly drawn)
IC50 [2]: > 10000 nM

Compound: C=C1C(=O)O[C@@H]2/C=C(/C)C3=CC(=O)[C@@](C)(C[C@H](OC(=O)C(C)C)[C@@H]12)O3
IC50 [1]: 580 nM

Compound: CC(C)=CCc1c2c(c(O)c3c1O[C@]14C(=C[C@H]5C[C@@H]1C(C)(C)O[C@@]4(C/C=C(/C)C(=O)O)C5=O)C3=O)C=CC(C)(C)O2
IC50 [3]: 360 nM

Compound: C=C(C)C(=O)O[C@H]1C[C@@]2(C)OC(=CC2=O)[C@H](C)C(CC(=C)C(=O)O[C@H]2C[C@@]3(C)OC(=CC3=O)/C(C)=C\[C@H]3OC(=O)C(=C)[C@H]23)[C@H]2OC(=O)C(=C)[C@H]12 (stereo partly drawn)
IC50 [1]: 150 nM

Compound: CCCCCCCCCCCCCCCC(=O)OC[C@H]1O[C@@H](O[C@H]2CC[C@@]3(C)C(=CC[C@H]4[C@@H]5CC[C@H]([C@H](C)CC[C@@H](CC)C(C)C)[C@@]5(C)CC[C@@H]43)C2)[C@H](O)[C@@H](O)[C@@H]1O
IC50 [3]: > 10000 nM

Compound: CC(C)=CCC12OC(C)(C)C3CC(C=C4C(=O)c5c(O)cc(O)cc5OC431)C2=O (stereo not drawn)
IC50 [4]: 4100 nM
IC50 [5]: 5900 nM

Compound: CC(C)=CCc1c(O)cc(O)c2c1O[C@]13C(=C[C@H]4C[C@@H]1C(C)(C)O[C@@]3(CC=C(C)C)C4=O)C2=O
IC50 [6]: 3500 nM

Compound: C=C1C(=O)O[C@@H]2C/C(C)=C\CC(=O)[C@](C)(OC(C)=O)C[C@H](OC(=O)/C(C)=C\C)[C@@H]12
IC50 [1]: 4000 nM

Compound: CC(C)=CCC[C@@]1(C)C=Cc2c(O)c3c(c(C/C=C(\C)CO)c2O1)O[C@]12C(=C[C@H]4C[C@@H]1C(C)(C)O[C@@]2(C/C=C(/C)C(=O)O)C4=O)C3=O
IC50 [8]: 620 nM

Compound: CC(C)=CCC/C(C)=C/Cc1c(O)c(CC=C(C)C)c2c(c1O)C(=O)C1=C[C@@H]3C[C@H]4C(C)(C)O[C@@](C/C=C(\C)C=O)(C3=O)[C@@]14O2
IC50 [8]: 970 nM

Compound: CC(C)=CCC/C(C)=C/Cc1c(O)c(CC=C(C)C)c2c(c1O)C(=O)C1=C[C@@H]3C[C@H]4C(C)(C)O[C@@](CC=C(C)C)(C3=O)[C@@]14O2
IC50 [8]: 1100 nM

Compound: C=C1C(=O)O[C@@H]2C[C@@H](C)[C@H](OC)CC(=O)[C@](C)(OC(C)=O)C[C@H](OC(=O)/C(C)=C\C)[C@@H]12
IC50 [1]: 1400 nM

Compound: C/C1=C\CC[C@@]2(C)O[C@H]2[C@H]2OC(=O)[C@@H](CNc3ccn(C4OC(CO)[C@H](O)[C@@H]4O)c(=O)n3)[C@@H]2CC1 (stereo partly drawn)
IC50 [2]: 240 nM
IC50 [9]: 5200 nM

Compound: C/C1=C\CC[C@@]2(C)O[C@H]2[C@H]2OC(=O)[C@@H](CNC(Cc3ccc(N(CCCl)CCCl)cc3)C(=O)O)[C@@H]2CC1 (stereo partly drawn)
IC50 [2]: 260 nM
IC50 [9]: 1800 nM

Compound: CC(C)=CCc1c2c(c(O)c3c1O[C@]14C(=C[C@H]5C[C@@H]1C(C)(C)O[C@@]4(C/C=C(\C)C=O)C5=O)C3=O)C=CC(C)(C)O2
IC50 [6]: 3300 nM

Compound: CO[C@H]1[C@H]2C(=O)c3c(O)c4c(c(CC=C(C)C)c3O[C@@]23[C@@H]2C[C@H]1C(=O)[C@]3(C/C=C(/C)C(=O)O)OC2(C)C)OC(C)(C)C=C4
IC50 [3]: 1900 nM

Compound: C=C1C(=O)O[C@@H]2[C@@H](O)[C@@H](C)C3=CC(=O)[C@@](C)(C[C@H](OC(=O)/C(C)=C\C)[C@@H]12)O3
IC50 [1]: 6600 nM

Compound: C=C(C)C(=O)O[C@H]1C[C@@]2(C)OC(=CC2=O)[C@H](C)[C@H](O)[C@H]2OC(=O)C(=C)[C@@H]21
IC50 [1]: 1900 nM

Compound: C=C1C(=O)O[C@@H]2C[C@@H](C)[C@H](OC)CC(=O)[C@](C)(O)C[C@H](OC(=O)/C(C)=C\C)[C@@H]12
IC50 [1]: 1000 nM

Compound: COc1cc2c(O[C@@H]3OC[C@H](O)[C@H](O)[C@H]3OC)c3c(c(-c4ccc5c(c4)OCO5)c2cc1OC)C(=O)OC3
IC50 [3]: 19 nM

Compound: CCCC(=O)Oc1ccc(C2Oc3cc(OC(=O)CCC)cc(O)c3C(=O)C2c2c(OC(=O)CCC)cc(O)c3c(=O)cc(-c4ccc(OC(=O)CCC)c(OC(=O)CCC)c4)oc23)cc1 (racemic)
IC50 [10]: 19800 nM
IC50 [11]: 8100 nM
IC50 [12]: 15700 nM

Compound: CC(=O)Oc1ccc(C2Oc3cc(OC(C)=O)cc(O)c3C(=O)C2c2c(OC(C)=O)cc(O)c3c(=O)cc(-c4ccc(OC(C)=O)c(OC(C)=O)c4)oc23)cc1 (racemic)
IC50 [10]: 21100 nM
IC50 [11]: 537000 nM
IC50 [12]: 600 nM

Compound: O=C1c2c(O)cc(O)cc2OC(c2ccc(O)cc2)C1c1c(O)cc(O)c2c(=O)cc(-c3ccc(O)c(O)c3)oc12 (racemic)
IC50 [10]: 3800 nM
IC50 [11]: 9600 nM
IC50 [12]: 10500 nM

Now from value to molecule:

IC50 [4]: 3300 nM
IC50 [5]: 3200 nM
Compound: COCOc1cc(O)c2c(c1)OC13C(=CC4CC1C(C)(C)OC3(CC=C(C)C)C4=O)C2=O (stereo not drawn)

IC50 [4]: 2500 nM
IC50 [5]: 3800 nM
Compound: COCOc1cc(O)c2c(c1)OC13C(=CC4CC1C(C)(C)OC3(C/C=C(\C)CO)C4=O)C2=O (stereo not drawn)

IC50 [3]: 2600 nM
Compound: C=C(C)C(O)Cc1c2c(c(O)c3c1O[C@]14C(=C[C@H]5C[C@@H]1C(C)(C)O[C@@]4(C/C=C(\C)C(=O)O)C5=O)C3=O)C=CC(C)(C)O2 (stereo partly drawn)

IC50 [7]: 830 nM
Compound: CO[C@@H]1[C@@H]2C[C@H]3C(C)(C)O[C@@](C/C=C(/C)C(=O)O)(C2=O)[C@]32Oc3c(CC=C(C)C)c4c(c(O)c3C(=O)[C@H]12)C=C[C@@](C)(CCC=C(C)C)O4

IC50 [8]: 950 nM
Compound: CC(C)=CCC[C@@]1(C)C=Cc2c(O)c3c(c(CCC(C)(C)O)c2O1)O[C@]12C(=C[C@H]4C[C@@H]1C(C)(C)O[C@@]2(C/C=C(/C)C(=O)O)C4=O)C3=O

IC50 [4]: 2700 nM
IC50 [5]: 310 nM
Compound: COCOc1cc(O)c2c(c1)OC13C(=CC4CC1C(C)(C)OC3(CC1OC1(C)C)C4=O)C2=O (stereo not drawn)

IC50 [4]: 960 nM
IC50 [5]: 1600 nM
Compound: COCOc1cc(O)c2c(c1)OC13C(=CC4CC1C(C)(C)OC3(C/C=C(\C)CBr)C4=O)C2=O (stereo not drawn)

IC50 [4]: 1000 nM
IC50 [5]: 5000 nM
Compound: COCOc1cc(O)c2c(c1)OC13C(=CC4CC1C(C)(C)OC3(C/C=C(\C)C=O)C4=O)C2=O (stereo not drawn)

IC50 [3]: 3200 nM
Compound: CC(C)=CCc1c(O)c(CC=C(C)C)c2c(c1O)C(=O)C1=C[C@H]3C[C@@H]4C(C)(C)O[C@@](C/C=C(/C)C(=O)O)(C3=O)[C@@]14O2

IC50 [4]: 560 nM
IC50 [5]: 2200 nM
Compound: COCOc1cc2c(c(O)c1Br)C(=O)C1=CC3CC4C(C)(C)OC(C/C=C(\C)CO)(C3=O)C14O2 (stereo not drawn)

IC50 [1]: 560 nM
Compound: C=C1C(=O)O[C@@H]2C[C@@H](C)C3=CC(=O)[C@@](C)(C[C@H](OC(=O)/C(C)=C\C)[C@@H]12)O3

IC50 [4]: 1700 nM
IC50 [5]: 860 nM
Compound: COCOc1cc(O)c2c(c1)OC13C(=CC4CC1C(C)(C)OC3(C[C@H](O)C(C)(C)O)C4=O)C2=O (stereo partly drawn)

IC50 [8]: 1400 nM
Compound: CC(C)=CCC/C(C)=C/Cc1c(O)c(CC=C(C)C)c2c(c1O)C(=O)C1=C[C@@H]3C[C@H]4C(C)(C)O[C@@](C/C=C(\C)C(=O)O)(C3=O)[C@@]14O2

IC50 [10]: 1600 nM
IC50 [11]: 235000 nM
IC50 [12]: 15400 nM
Compound: COc1ccc(C2Oc3cc(OC)cc(O)c3C(=O)C2c2c(OC)cc(O)c3c(=O)cc(-c4ccc(OC)c(OC)c4)oc23)cc1 (racemic)

IC50 [3]: 2900 nM
Compound: CC(C)=CCc1c2c(c(O)c3c1O[C@]14C(=C[C@H]5C[C@@H]1C(C)(C)O[C@@]4(C/C=C(/C)C(=O)O)C5=O)C3=O)CC(O)C(C)(C)O2 (single isomer, unassigned; (-))

IC50 [13]: 140 nM
Compound: CC(C)=CCc1c(-c2cc(O)c(O)cc2O)oc2c3c(cc(O)c2c1=O)OC(C)(C)C=C3 [ARTONIN E]
